# From patent publication US8163758B2 (Parion Sciences, Inc., priority 2006, dated 2012)
# Structures can show the parent of a compound that is named as a salt.
# How the values were obtained:
# [1] = biological target: T1, epithelial sodium channel (ENaC) (Canis lupus familiaris, UniProt A0A8I3MKE6+A0A8I3Q679+Q95165); test: ENaC blocking activity, short circuit current in airway epithelial monolayers in Ussing chambers; type: cell-based; settings: canine bronchial epithelia; for ENaC blocking potency relative to Amiloride: fold potency versus amiloride; for IC50: lumenal addition, propranolol 10 μM applied first
# T1 construct: endogenous in cells; host or cells: primary canine bronchial epithelial cells cultured at air-liquid interface
# T1 sequence (A0A8I3Q679 1-649): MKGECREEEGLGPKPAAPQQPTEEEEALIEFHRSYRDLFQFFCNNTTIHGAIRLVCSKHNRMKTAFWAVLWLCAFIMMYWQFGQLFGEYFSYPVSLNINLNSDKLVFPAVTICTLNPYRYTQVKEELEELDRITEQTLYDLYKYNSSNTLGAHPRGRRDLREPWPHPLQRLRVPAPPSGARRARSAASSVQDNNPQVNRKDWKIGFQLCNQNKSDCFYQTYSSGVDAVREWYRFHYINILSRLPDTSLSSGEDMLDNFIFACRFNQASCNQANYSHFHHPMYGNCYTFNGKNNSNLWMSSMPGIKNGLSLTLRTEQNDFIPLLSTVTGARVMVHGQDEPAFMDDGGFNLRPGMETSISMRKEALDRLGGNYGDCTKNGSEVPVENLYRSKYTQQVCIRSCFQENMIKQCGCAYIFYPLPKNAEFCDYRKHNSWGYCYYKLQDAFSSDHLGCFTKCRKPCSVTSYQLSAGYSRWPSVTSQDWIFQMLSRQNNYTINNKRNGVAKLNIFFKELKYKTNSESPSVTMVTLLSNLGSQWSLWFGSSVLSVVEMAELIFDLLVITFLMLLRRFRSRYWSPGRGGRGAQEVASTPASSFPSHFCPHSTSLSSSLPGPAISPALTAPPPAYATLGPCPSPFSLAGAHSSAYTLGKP
# T1 sequence (Q95165 1-641): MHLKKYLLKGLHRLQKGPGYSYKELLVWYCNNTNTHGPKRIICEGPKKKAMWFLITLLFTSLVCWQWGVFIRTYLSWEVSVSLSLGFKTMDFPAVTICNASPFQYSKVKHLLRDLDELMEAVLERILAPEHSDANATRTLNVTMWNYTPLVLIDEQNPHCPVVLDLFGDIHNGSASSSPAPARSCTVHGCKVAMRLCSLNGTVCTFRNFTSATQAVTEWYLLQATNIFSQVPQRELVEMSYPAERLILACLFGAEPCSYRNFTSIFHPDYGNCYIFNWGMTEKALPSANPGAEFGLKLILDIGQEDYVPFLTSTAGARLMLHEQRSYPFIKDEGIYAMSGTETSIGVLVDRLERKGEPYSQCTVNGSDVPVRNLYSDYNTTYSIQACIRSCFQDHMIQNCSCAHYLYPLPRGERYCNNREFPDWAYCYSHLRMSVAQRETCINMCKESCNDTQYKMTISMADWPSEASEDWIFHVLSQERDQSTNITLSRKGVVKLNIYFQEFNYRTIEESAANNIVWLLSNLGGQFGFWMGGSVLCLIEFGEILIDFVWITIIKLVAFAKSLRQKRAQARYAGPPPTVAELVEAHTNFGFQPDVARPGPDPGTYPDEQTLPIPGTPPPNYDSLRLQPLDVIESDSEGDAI
# T1 sequence (A0A8I3MKE6 1-646): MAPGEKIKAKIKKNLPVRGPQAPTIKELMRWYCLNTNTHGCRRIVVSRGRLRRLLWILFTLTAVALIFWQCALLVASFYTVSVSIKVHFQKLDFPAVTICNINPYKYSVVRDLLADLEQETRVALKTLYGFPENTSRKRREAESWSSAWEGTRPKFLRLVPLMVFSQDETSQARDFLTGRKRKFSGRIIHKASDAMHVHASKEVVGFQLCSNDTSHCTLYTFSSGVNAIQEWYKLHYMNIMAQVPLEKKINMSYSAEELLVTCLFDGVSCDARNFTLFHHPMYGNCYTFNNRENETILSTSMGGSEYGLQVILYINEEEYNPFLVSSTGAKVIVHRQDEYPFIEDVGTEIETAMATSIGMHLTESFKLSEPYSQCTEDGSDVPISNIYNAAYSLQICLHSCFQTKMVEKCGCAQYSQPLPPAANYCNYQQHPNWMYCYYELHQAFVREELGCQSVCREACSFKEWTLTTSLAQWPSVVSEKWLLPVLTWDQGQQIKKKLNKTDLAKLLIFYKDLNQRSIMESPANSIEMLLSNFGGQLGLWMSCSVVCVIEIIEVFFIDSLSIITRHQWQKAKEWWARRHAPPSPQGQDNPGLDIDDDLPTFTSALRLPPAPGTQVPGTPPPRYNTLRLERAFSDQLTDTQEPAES
# Method: To assess epithelial sodium channel blocker potency the compounds of the present invention involves the determination of lumenal drug inhibition of airway epithelial sodium currents measured under short circuit current (ISC) using airway epithelial monolayers mounted in Ussing chambers. Cells obtained from freshly excised human, or dog airways are seeded onto porous 0.4 micrometer Transwell® Permeable Supports (Corning Inc. Acton, Mass.), cultured at air-liquid interface (ALI) conditions in hormonally defined media, and assayed for sodium transport activity (ISC) while bathed in Krebs Bicarbonate Ringer (KBR) in Ussing chambers. All test drug additions are to the lumenal bath with approximately half-log dose additions (from 1×10^−11 M to 6×10^−5 M), and the cumulative change in ISC (decreases) recorded. All drugs are prepared in dimethyl sulfoxide as stock solutions at a concentration of approximately 1×10^−2 and stored at −20° C. Six preparations are typically run in parallel; one preparation per run incorporates 552-02 as a positive control. Before the start of the concentration-effect relationship propranolol, a non-selective […], was applied to the lumenal bath (10 μM) to inhibit the beta agonist component of the designer multiple ligand (DML). All data from the voltage clamps are collected via a computer face and analyzed off-line.
# Concentration-effect relationships for all compounds are considered and analyzed Using GraphPad Prism version 3.00 for Windows, GraphPad Software, San Diego Calif. USA. IC50 values, […], are calculated and compared to the 552-02 potency as a positive control.
# beta-adrenergic receptor = biological target: T2, beta-adrenergic receptor (Canis lupus familiaris, UniProt P54833); test: Beta agonist activity, anion secretion short circuit current in airway epithelial monolayers in Ussing chambers; type: cell-based, canine
# T2 construct: endogenous in cells; host or cells: primary canine bronchial epithelial cells cultured at air-liquid interface
# T2 sequence (P54833 whole entry): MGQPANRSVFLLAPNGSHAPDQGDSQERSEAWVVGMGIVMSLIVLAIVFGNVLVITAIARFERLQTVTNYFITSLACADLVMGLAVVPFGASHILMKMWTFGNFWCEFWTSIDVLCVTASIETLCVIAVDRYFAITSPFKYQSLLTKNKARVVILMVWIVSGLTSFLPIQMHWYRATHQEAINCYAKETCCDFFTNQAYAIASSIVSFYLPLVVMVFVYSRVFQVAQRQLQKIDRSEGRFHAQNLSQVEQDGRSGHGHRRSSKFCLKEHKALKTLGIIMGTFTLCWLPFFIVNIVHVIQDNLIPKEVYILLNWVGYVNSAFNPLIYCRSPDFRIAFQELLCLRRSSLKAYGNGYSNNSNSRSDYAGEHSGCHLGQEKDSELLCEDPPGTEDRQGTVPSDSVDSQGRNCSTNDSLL
# Method: To assess beta agonist activity the compounds of the present invention involves the determination of lumenal drug addition to promote airway epithelial anion currents measured under short circuit current (ISC) using airway epithelial monolayers mounted in Ussing chambers. Cells obtained from freshly excised human, dog, or sheep airways are seeded onto porous 0.4 micron Transwell® Permeable Supports (Corning), cultured at air-liquid interface (ALI) conditions in hormonally defined media, and assayed for anion secretion (ISC) while bathed in Krebs Bicarbonate Ringer (KBR) in Ussing chambers. All test drug additions are to the lumenal bath with approximately half-log dose additions (from 8×10^−10 M to 6.5×10^−5 M), and the cumulative change in ISC (excitation) recorded. All drugs are prepared in dimethyl sulfoxide as stock solutions at a concentration from 1×10^−1 to 1×10^−2 M and stored at −20° C. […] Before the start of the concentration-effect relationship 552-02 a potent sodium channel blocker was applied to the apical surface (1 μM) to eliminate changes in Isc caused by sodium absorption. All data from the voltage clamps are collected via a computer interface and analyzed off-line.
# Concentration-effect relationships for all compounds are considered and analyzed Using GraphPad Prism version 3.00 for Windows, GraphPad Software, San Diego Calif. USA.
Compound,melting point,ENaC blocking potency relative to Amiloride [1],IC50 [1],EC50 (beta-adrenergic receptor)
"N=C(NCCCCc1ccc(CCCCN(C[C@H](O)c2ccc(O)c(NC=O)c2)C[C@H](O)c2ccc(O)c(NC=O)c2)cc1)NC(=O)c1nc(Cl)c(N)nc1N (as salt: salt) [Compound 14, N-{4-[4-(4-{bis-[2-(R)-hydroxy-2-(4-hydroxy-3-formylaminophenyl)-ethyl]amino}butyl)phenyl]butyl}-N′-(3,5-diamino-6-chloropyrazine-2-carbonyl)-guanidine diacetic acid salt]",128 to 130 °C,–,–,–
"CC(CCCc1ccc(CCCCNC(=N)NC(=O)c2nc(Cl)c(N)nc2N)cc1)NC[C@H](O)c1cccc(O)c1 (stereo partly drawn) [Compound 143, 3,5-diamino-6-chloro-N-{N-[4-(4-{4-[(R)-2-hydroxy-2-(3-hydroxyphenyl)ethylamino]pentyl}phenyl)butyl]carbamimidoyl}pyrazine-2-carboxamide]",82 to 86 °C,–,–,–
"N=C(NCCCCc1ccc(CCCCN(C[C@H](O)c2ccc(O)c(NC=O)c2)C[C@H](O)c2ccc(O)c(NC=O)c2)cc1)NC(=O)c1nc(Cl)c(N)nc1N [Compound 14, N-{4-[4-(4-{bis-[2-(R)-hydroxy-2-(4-hydroxy-3-formylaminophenyl)-ethyl]amino}butyl)phenyl]butyl}-N′-(3,5-diamino-6-chloropyrazine-2-carbonyl)-guanidine diacetic acid salt]",–,66 × Amiloride,0.0177 µM,–
"N=C(NCCCCc1ccc(CCCCNC[C@H](O)c2ccc(O)c(CO)c2)cc1)NC(=O)c1nc(Cl)c(N)nc1N [Compound 63, N-(3,5-diamino-6-chloropyrazine-2-carbonyl)-N′-[4-(4-{4-[2-(R)-hydroxy-2-(4-hydroxy-3-hydroxymethylphenyl)ethylamino]butyl}phenyl)butyl]-guanidine]",–,154 × Amiloride,0.0065 µM,–
"C[C@H](CCCc1ccc(CCCCNC(=N)NC(=O)c2nc(Cl)c(N)nc2N)cc1)NC[C@H](O)c1ccc(O)c(NC=O)c1 (as salt: lactate) (hydrate or solvate) [Compound 30, N-(5-{2-[4-(4-{4-[N′-(3,5-diamino-6-chloropyrazine-2-carbonyl)-guanidino]butyl}phenyl)-1-methylbutylamino]-1-(R)-hydroxyethyl}-2-hydroxyphenyl)formamide]",116 to 119 °C,–,–,–
"N=C(NCCCCc1ccc(CCCCN(C[C@H](O)c2ccc(O)c(CO)c2)C[C@H](O)c2ccc(O)c(CO)c2)cc1)NC(=O)c1nc(Cl)c(N)nc1N [Compound 67, N-{4-[4-(4-{bis-[2-(R)-hydroxy-2-(4-hydroxy-3-hydroxymethylphenyl)-ethyl]amino}butyl)-phenyl]butyl}-N′-(3,5-diamino-6-chloropyrazine-2-carbonyl)-guanidine]",–,29 × Amiloride,0.0222 µM,–
"N=C(NCCCCc1ccc(CCCCNC[C@H](O)c2ccc(O)c(NC=O)c2)cc1)NC(=O)c1nc(Cl)c(N)nc1N [Compound 12, N-(5-{2-[4-(4-{4-[N′-(3,5-diamino-6-chloropyrazine-2-carbonyl)guanidino]butyl}phenyl)butylamino]-1-(R)-hydroxyethyl}-2-hydroxyphenyl)formamide]",138 to 140 °C,132 × Amiloride,0.0057 µM,0.151 µM
"C[C@H](CCCc1ccc(CCCCNC(=N)NC(=O)c2nc(Cl)c(N)nc2N)cc1)NC[C@H](O)c1ccc(O)c(NC=O)c1 [Compound 30, N-(5-{2-[4-(4-{4-[N′-(3,5-diamino-6-chloropyrazine-2-carbonyl)-guanidino]butyl}phenyl)-1-methylbutylamino]-1-(R)-hydroxyethyl}-2-hydroxyphenyl)formamide]",120 to 121 °C (dec.),93 × Amiloride,0.0084 µM,0.0716 µM
"CC(=O)Nc1cc([C@@H](O)CNC(C)CCCc2ccc(CCCCNC(=N)NC(=O)c3nc(Cl)c(N)nc3N)cc2)ccc1O (stereo in doubt) (as salt: lactate) [Compound 175, N—(N-(4-(4-((S)-4-((R)-2-(3-acetamido-4-hydroxyphenyl)-2-hydroxyethylamino)pentyl)phenyl)butyl)carbamimidoyl)-3,5-diamino-6-chloropyrazine-2-carboxamide di-L-lactate]",46 to 50 °C (dec.),–,–,–
"CS(=O)(=O)Nc1cc([C@@H](O)CN(CCCCc2ccc(CCCCNC(=N)NC(=O)c3nc(Cl)c(N)nc3N)cc2)C[C@H](O)c2ccc(O)c(NS(C)(=O)=O)c2)ccc1O [Compound 42, N-[5-(2-{[4-(4-{4-[N′-(3,5-diamino-6-chloropyrazine-2-carbonyl)-guanidino]butyl}phenyl)butyl]-[2-(R)-hydroxy-2-(4-hydroxy-3-methanesulfonyl-aminophenyl)ethyl]amino}-1-(R)-hydroxyethyl)-2-hydroxyphenyl]methane-sulfonamide]",148 to 150 °C,–,0.0216 µM,–
"N=C(NCCCCc1ccc(OCCNC[C@H](O)c2ccc(O)c(NC=O)c2)cc1)NC(=O)c1nc(Cl)c(N)nc1N [Compound 19, N-(5-{2-[2-(4-{4-[N-(3,5-diamino-6-chloropyrazine-2-carbonyl)guanidine]butyl}phenoxy)ethylamino]-1-(R)-hydroxylethyl}-2-hydroxyphenyl)-formamide]",120 to 124 °C (dec.),120 × Amiloride,0.01 µM,–
